In patent US12083268B2, “Delivery device and formulation” (Ockham Biotech Limited, priority 2016, dated 2024):
“And” between values parts separate entries of the source, which are not always exact repeats. Equal values may be shown once.

Legend:
[1] = Solubility of dexamethasone in NaCl solution with and without heparin; format: physicochemical
[2] = in water; reference [7]; cited from earlier work
[3] = HPLC of unfractionated heparin before and after nebulisation with PARI eFlow; format: physicochemical; settings: 0.25 mg/mL (50 U/mL) in water
Experimental: A solution of unfractionated heparin (diluted to 50 U/mL, i.e. 0.25 mg/mL, in ultra high quality water) was analysed by high performance liquid chromatography. HPLC analysis was performed using a […] ion-paring C8 column (Hichrom, Reading, UK), a Rheodyne 7725 syringe loading sample injector fitted with a 20 μL loop (Rheodyne, Cotati, CA, USA), a LKB2150 dual piston pump (LK Bromma, Swedon), a HP 1050CVW detector (Agilent, UK), a HP 3396A integrator (Agilent, UK) and a Rheodyne 25 μL capacity syringe was used to load a 20 μL sample into the injection port. HPLC conditions consisted of an ultraviolet wavelength selected at 232 nm. The flow rate was adjusted to 0.50 mL/min and a pressure of 50 bar was recorded. A mobile phase composed of 30% acetonitrile and 70% aqueous solution comprising 15 mM tetrabutylammonium hydroxide and 50 mM ammonium acetate in HPLC grade water, adjusted to pH 7 with acetic acid, was used. The resulting HPLC trace is shown as the left-hand trace in FIG. 11.
An identical sample of unfractionated heparin was nebulised using the PARI eFlow® device, and recollected. […] The resulting HPLC trace is shown as the right-hand trace in FIG. 11.

[4] = Physicochemical characterisation of heparin solutions in water
Experimental: Tests for viscosity, surface tension and osmolality were carried out in triplicate. For pH and density single measurements were performed.

[5] = Laser diffraction of aerosol from heparin solutions nebulised with PARI eFlow; format: physicochemical
Experimental: There is a moderate increase from 1.25±0.01 to 1.99±0.02 mPa·s between 6 and 30 mg/mL and a strong increase to 8.9±0.08 mPa·s when the concentration is further increased to 150 mg/mL. The surface tension (nearly equal to that of water) remains constant between 6 and 30 mg/mL and increases only slightly (from 72.41±0.02 to 73.78±0.05 mN/m) between 30 and 150 mg/mL. As expected the osmolality increases with increasing concentration, going from 0.014±0.001 to 0.293±0.001 osmol/kg over the investigated concentration range. […] All formulations show a pH (between 5.97 and 6.50) which would be appropriate for inhalation (the allowed range according to the European Pharmacopoeia is pH 3.0-8.5). The heparin solutions were nebulised using a PARI eFlow® device configured with Head class 40, which typically results in droplet sizes from 4.0-4.9 μm when using dilute aqueous formulations. The properties of the resultant aerosol particles were measured using laser diffraction, and are compared with the results obtained for isotonic saline measured using the same nebuliser configuration in Table 2.

[6] = Particle size distribution of heparin solutions aerosolised with Aeroneb Go (HELOS KR particle sizer); format: physicochemical
Experimental: The particle size distribution of heparin solutions was measured after aerosolisation of the heparin solutions using the Aeroneb® Go nebuliser. Particle size measurements were made using the HELOS KR particle sizer device, INHALER module, and WINDOX 5.0 software from SympatecGmbH (Clausthal-Zellerfeld, Germany). The total volume of solution in the reservoir of the nebuliser was 6 mL: 1.5 mL heparin (Wokhardt, 25,000 IU/mL) with 4.5 mL 0.9% aqueous NaCl (final concentration of heparin=6250 IU/mL or 31.25 mg/mL; final concentration of NaCl=[…]). The viscosity of the solution was 1.7 mPa·s. The nebulisation time was 14 min (reservoir empty); particle size measurements were divided into 1 min intervals. The particle distribution is seen to be bimodal. The X50 is […] (mean±standard deviation), where 50% of the total number of the particles is in particles less than this size. […] Optical concentration (droplets in laser pathway) was used as an indication of nebulisation efficiency; this nebulisation efficiency was determined to be 76.91%±4.25%.
(§1) Aqueous solutions of unfractionated heparin as its sodium salt containing various concentrations of an added inorganic salt were also aerosolised using the Aeroneb® Go. Particle size measurements were made using the HELOS KR particle sizer device, INHALER module, and WINDOX 5.0 software from SympatecGmbH (Clausthal-Zellerfeld, Germany). The heparin sodium salt was obtained from pig intestinal mucosa (Calbiochem, molecular weight 12-15 kDa, 192 U/mg). The particle size distributions are shown in FIGS. 2-7 and the important parameters, quoted as mean values ±standard deviations, are summarised in Table 4 below.
A 40 mg/mL aqueous solution of heparin containing 140 mM NaCl was aerosolised using the Aeroneb® Go nebuliser in the absence and presence of salbutamol (a bronchodilator) and dexamethasone (a corticosteroid). Particle size measurements were made using the HELOS KR particle sizer device, INHALER module, and WINDOX 5.0 software from SympatecGmbH (Clausthal-Zellerfeld, Germany).

[7] = Viscosity of heparin salt solutions (BS/U-tube viscometer); format: physicochemical; settings: 40 mg/mL heparin
Text: as §1

[8] = Anti-coagulant activity after nebulisation from PARI eFlow
Text: In an additional experiment, it was also observed that the anti-coagulant activity of the unfractionated heparin was retained after nebulisation from the PARI eFlow® device.

[9] = Viscosity of heparin salt solutions (BS/U-tube viscometer); format: physicochemical
[10] = 31.25 mg/mL heparin, 154 mM NaCl, Aeroneb Go
[11] = 40 mg/mL heparin, 112 mM NaCl, 56 mM MgCl2, Aeroneb Go
[12] = 40 mg/mL heparin, 140 mM NaCl, Aeroneb Go
[13] = 40 mg/mL heparin, 168 mM NaCl, Aeroneb Go
[14] = 40 mg/mL heparin, 196 mM NaCl, Aeroneb Go
[15] = 40 mg/mL heparin, 210 mM NaCl, Aeroneb Go
[16] = 40 mg/mL heparin, 224 mM NaCl, Aeroneb Go
[17] = 40 mg/mL unfractionated heparin, 140 mM NaCl, 0.75 mg/mL dexamethasone, Aeroneb Go
[18] = 40 mg/mL unfractionated heparin, 140 mM NaCl, 0.83 mg/mL salbutamol, Aeroneb Go
[19] = 40 mg/mL unfractionated heparin, 140 mM NaCl, no second agent, Aeroneb Go

For `C[C@@H]1C[C@H]2[C@@H]3CCC4=CC(=O)C=C[C@]4(C)[C@@]3(F)[C@@H](O)C[C@]2(C)[C@@]1(O)C(=O)CO` [dexamethasone], the “solubility (in words)” value ([1]; 0.25 mg/mL in 140 mM NaCl alone) was “not soluble” and the “solubility (in words)” value ([1]; in 140 mM NaCl containing 40 mg/mL heparin) was “soluble”.

In the case of heparin, the intrinsic viscosity [2] is given as 80.6 mL/g, the “structural integrity / degradation on nebulisation (HPLC traces before vs after)” value [3] is given as “does not lead to degradation” and the Viscosity ([4]; 6 mg/mL heparin in water) is given as 1.25±0.01 mPa · s and 1.25 mPa · s. For the same molecule, the density ([4]; 6 mg/mL heparin in water) was 1.00 g/mL, the osmolality ([4]; 6 mg/mL heparin in water) was 0.014±0.001 osmol/kg and 0.014 osmol/kg and the pH ([4]; 6 mg/mL heparin in water) was 6.50. For the same molecule, the surface tension ([4]; 6 mg/mL heparin in water) was 72.58 mN/m, the Viscosity ([4]; 30 mg/mL heparin in water) was 1.99±0.02 mPa · s and 1.99 mPa · s and the density ([4]; 30 mg/mL heparin in water) was 1.01 g/mL. The osmolality ([4]; 30 mg/mL heparin in water) was 0.056 osmol/kg, the pH ([4]; 30 mg/mL heparin in water) was 6.01 and the surface tension ([4]; 30 mg/mL heparin in water) was 72.41±0.02 mN/m and 72.41 mN/m. For the same molecule, the Viscosity ([4]; 150 mg/mL heparin in water) was 8.9±0.08 mPa · s and 8.90 mPa · s, the density ([4]; 150 mg/mL heparin in water) was 1.07 g/mL and the osmolality ([4]; 150 mg/mL heparin in water) was 0.293±0.001 osmol/kg and 0.293 osmol/kg. The pH ([4]; 150 mg/mL heparin in water) was 5.97, the surface tension ([4]; 150 mg/mL heparin in water) was 73.78±0.05 mN/m and 73.78 mN/m and the “MMD (median mass diameter)” value ([5]; 6 mg/mL heparin) was 4.6 μm. For the same molecule, the “RF (respirable fraction) [% <5 μm]” value ([5]; 6 mg/mL heparin) was 57.9%, the “MMD (median mass diameter)” value ([5]; 30 mg/mL heparin) was 4.4 μm and the “RF (respirable fraction) [% <5 μm]” value ([5]; 30 mg/mL heparin) was 63.0%. For the same molecule, the X50 [6, 10] was 3.45 ± 0.025 µm, the X90 [6, 10] was “less than 8.5 m” and the “particles within the respirable range of 1-5 μm” value [6, 10] was 57.87%. The “Particles in 1-5 μm range” value [6, 11] was 58.46% and 58.46 ± 0.30%, the “VMD (volume median diameter)” value [6, 11] was 4.31 ± 0.05 μm and the X50 [6, 11] was 3.49 ± 0.056 μm. For the same molecule, the “Particles in 1-5 μm range” value [6, 12] was 50.76% and 50.76 ± 0.63%, the “VMD (volume median diameter)” value [6, 12] was 4.80 ± 0.06 μm and the X50 [6, 12] was 4.095 ± 0.044 μm. The X50 ([6]; 40 mg/mL heparin, 140 mM NaCl, no second agent, Aeroneb Go (as restated in conclusions)) was 3.98±0.03 μm, the VMD ([6]; 40 mg/mL heparin, 140 mM NaCl, with salbutamol, Aeroneb Go (as restated in conclusions)) was 4.47 μm and the “Particles in 1-5 μm range” value [6, 13] was 56.65% and 56.65 ± 0.47%. The “VMD (volume median diameter)” value [6, 13] was 4.41 ± 0.025 μm, the X50 [6, 13] was 3.543 ± 0.049 μm and the “Particles in 1-5 μm range” value [6, 14] was 48.62% and 48.62 ± 0.38%. The “VMD (volume median diameter)” value [6, 14] was 4.68 ± 0.02 μm, the X50 [6, 14] was 3.978 ± 0.022 μm and the “Particles in 1-5 μm range” value [6, 15] was 55% and 55 ± 0.24%. The “VMD (volume median diameter)” value [6, 15] was 4.55 ± 0.023 μm, the X50 [6, 15] was 3.812 ± 0.027 μm and the “Particles in 1-5 μm range” value [6, 16] was 57.02% and 57.02 ± 0.28%. The “VMD (volume median diameter)” value [6, 16] was 4.37 ± 0.032 μm, the X50 [6, 16] was 3.51 ± 0.03 μm and the VMD [6, 17] was 4.61 ± 0.058 µm. For the same molecule, the X50 [6, 17] was 3.906±0.048 μm, the “particles within the respirable range of 1-5 m” value [6, 17] was 49.954% and the VMD [6, 18] was 4.47 ± 0.054 µm. The X50 [6, 18] was 3.546±0.045 μm, the “particles within the respirable range of 1-5 m” value [6, 18] was 55.154% and the VMD [6, 19] was 4.64±0.033 μm. The X50 [6, 19] was 3.98 ± 0.03 µm, the “particles within the respirable range of 1-5 μm” value [6, 19] was 48.21% and the Viscosity ([7]; 0 mM NaCl, 0 mM MgCl2) was 2.5 mPa · s. For the same molecule, the Viscosity ([7]; 112 mM NaCl, 56 mM MgCl2) was 2 mPa · s and 2.0 mPa · s, the Viscosity ([7]; 140 mM NaCl) was 2.22 mPa · s and the Viscosity ([7]; 168 mM NaCl) was 2.25 mPa · s. For the same molecule, the Viscosity ([7]; 196 mM NaCl) was 2.2 mPa · s, the Viscosity ([7]; 210 mM NaCl) was 2.2 mPa · s and the Viscosity ([7]; 224 mM NaCl) was 2 mPa · s and 2.0 mPa · s. The “anti-coagulant activity after nebulisation” value [8] was “retained”, the Viscosity ([9]; 31.25 mg/mL (6250 IU/mL) heparin, 154 mM NaCl) was 1.7 mPa·s and the Viscosity ([9]; 40 mg/mL unfractionated heparin, 140 mM NaCl (Example 3)) was 2.2 mPa·s.
